Measurements from patent publication US20080004694A1, “COMPOSITIONS AND METHODS FOR ADMINISTERING DEXAMETHASONE WHICH PROMOTE HUMAN CORONARY ARTERY ENDOTHELIAL CELL MIGRATION” (ABBOTT LABORATORIES, priority 2006, published 2008).
“Also recorded” adds a separate entry of the source.

Experiments:
[1] = tested on: p70S6K (T389) phosphorylation in hCaEC; test: Western blot of p70S6K (T389) phosphorylation in hCaEC; format: cell-based, human; conditions: for effect on p70S6K T389 phosphorylation in hCaEC: 300 nM drug in growth media, 36 hours, after 24 h synchronization
Procedure: Human Coronary Endothelial Cells (hCaEC, Cambrex) were seeded on 100 mm plastic dishes (1-3×10^5 cells per dish) and incubated at 37° C. with 5% CO2 in complete growth media containing hFGF, HEGF, VEGF, R^3-IGF-1 and 5% FBS (GM). Cells were allowed to grow until dishes were 30-40% confluent. Cells were synchronized by incubation in basal media without supplements (BM) for 24 h. After synchronization the BM was replaced with GM containing test compounds, DMSO and BSA (Experimental dish: GM containing 300 nM test compounds, 0.1% BSA; Positive control: GM containing 0.1% BSA and 0.1% DMSO; Negative control: BM containing 0.1 or 0.5% FBS, 0.1% BSA and 0.1% DMSO).
Cells were incubated for 24 or 36 hours at 37° C. with 5% CO2. After which dishes were 50-70% confluent. Dishes were rinsed with warm PBS to remove excess FBS and than placed on ice. Whole cell lysates were prepared by adding 150-200 ul of RIPA lysis buffer at 4° C. (50 mM Tris HCl pH 8, 150 mM NaCl, 1% NP-40, 0.5% sodium deoxycholate, 0.1% SDS, 2 mM PMSF, 1 mM sodium orthovanadate, and protease inhibitor cocktail, Santa Cruz Biotechnology) to the culture dishes and collected by scrapping the plate surface with a cell scrapper. Lysates were transferred to 1 ml eppendorf tubes and incubated on ice with vortexing for 30 min. Samples were than centrifuged for 8 min at 10000 rpm. Supernatants were collected and transferred into new tubes and stored at −70° C.
The total protein concentration of the samples was determined by a modification of the method of Bradford (Quick Start Bradford Microplate Standard Assay, Bio-Rad) with bovine γ-globulin as a standard.
Total volume of the loaded sample was 45 ul containing 15 ul of 3× sample buffer (Laemmli Sample Buffer, Bio Rad), and sample (30 ul) containing 25 to 50 ug of protein. Samples were diluted to the same protein concentration. Samples were mixed and boiled at 98° C. for 3-4 minutes. Denaturated samples were separated in 4-15% gradient or 12% Ready Tris-HCl gels (Bio-Rad) in running buffer 25 mM Tris, pH 8.3, 192 mM glycine, 0.1% SDS at 150-180 V for 60-90 minutes and transferred to Hybond-ECL membrane (Amersham Biosciences) in 25 mM Tris, pH 8.3, 192 mM glycine, 20% methanol at 100 V for 1 hour.
Protein transfer to the membrane was verified by staining with Ponceau. Ponceau was removed by washing membranes 3 times for 5 minutes in TBS-T (10 mM Tris, pH 7.4, 150 mM NaCl, and 0.1% Tween 20). The membrane was blocked with a 3% solution of nonfat dry milk (Blotting-Grade Blocker, Bio-Rad) in TBS-T for 1 hour at room temperature. Membranes were then incubated with rabbit anti-phospho-p70S6K (T389) monoclonal antibody (Cell Signaling) 1:200 or 1:400 in 3% nonfat dry milk overnight at +4° C. and gently rocked. Goat polyclonal antibodies raised against the C-terminus of actin of human origin (Santa-Cruz Biotechnology) were used at a 1:800 dilution.
After overnight incubation with the primary antibody, membranes were washed with TBS-T 3 times for 5 minutes followed by incubation with the appropriate horseradish peroxidase linked secondary antibodies in 3% nonfat dry milk according to antibody supplier instructions. After one-hour incubation at room temperature with secondary antibodies the membrane was washed again using TBS-T, 3 times for 5 minutes and developed using ECL Plus (Amersham Biosciences). Images of the membranes were scanned and stored using a multi-channel scanning system FLA-5000 (FUJI Film). […]

[2] = tested on: human coronary artery endothelial cells (hCaEC); test: hCaEC migration induced by full growth media after 24 h drug pretreatment; format: cell-based; conditions: for effect on full growth media induced hCaEC migration after drug pretreatment: 24 h pretreatment in full growth media, drug present during migration
Procedure: (§1) In acute studies, cells were collected, counted, and 200,000 hCaEC or 160,000 hCaSMC placed in the upper chambers of modified boyden chambers in 24 well plates (BD Biosciences). Plates contained microporous membranes of 3.0 and 8.0 um for hCaEC and hCaSMC, respectively. […] After migration, cells were stained with calcein-AM for 90 minutes and fluorescence determined using a plate reader capable of measuring fluorescence emitted by the bottom of the microporous filter.
Migration of hCaEC was induced by full growth media and the effects of the drugs sirolimus, dexamethasone, zotarolimus, everolimus, and paclitaxel on hCaEC migration determined. Following pretreatment cells were counted and re-suspended in basal media containing drugs and migration initiated.

[3] = tested on: human coronary artery smooth muscle cells (hCaSMC); test: hCaSMC migration in response to FBS alone after 24 h drug pretreatment; format: cell-based; conditions: 24 h pretreatment in growth media, drug present
Procedure: as §1
Another experiment was conducted to determine if growth factors contained in full growth media played a role in the inability of the mTOR antagonist zotarolimus or dexamethasone to inhibit human coronary artery smooth muscle cell (hCaSMC) migration. Migration in response to FBS following pretreatment of hCaSMC with different concentrations of drugs was determined for the drugs dexamethasone, zotarolimus, rapamycin, and paclitaxel. To explore this effect, hCaSMC were synchronized, pretreated with drug in growth media for 24 hours, resuspended in basal media containing drug and migration in response to FBS alone determined.

[4] = tested on: p70S6K (T389) phosphorylation in hCaSMC; test: Western blot of p70S6K (T389) phosphorylation in hCaSMC; format: cell-based, human; conditions: 300 nM drug, 36 hours, after 24 h synchronization
Procedure: To determine if inhibition of p70S6K was involved in serum-induced migration Western blot experiments were performed on hCaEC and hCaSMC treated using an experimental paradigm similar to those of the migration experiments. […] The effects of drug treatment on p70S6K T389 phosphorylation in hCaEC are illustrated in FIG. 6A-6B. […] Paclitaxel also reduces T389 phosphorylation though this effect is less than that of the mTOR antagonists.
Membranes were probed with a rabbit anti-phospho-p70S6K (T389) monoclonal antibody (Cell Signaling). […] Furthermore, the anti-migratory activity of the mTOR antagonists is not likely to contribute to their anti-restenotic activity. Conversely, paclitaxel is a potent anti-migratory agent and this effect is likely to contribute to the anti-restenotic activity.

[5] = tested on: human coronary artery smooth muscle cells (hCaSMC); test: PDGF-BB induced hCaSMC migration after 24 h drug pretreatment; format: cell-based; conditions: 24 h pretreatment; PDGF-BB 25 ng/ml
Procedure: as §1
Pre-exposure with the mTOR agent sirolimus has been reported to block rat aortic smooth muscle cell migration in response to S1P-1 and porcine aortic smooth muscle in response to PDGF-BB. […] In contrast to their inability to block serum-induced migration, zotarolimus, dexamethasone, and paclitaxel all inhibited migration in response to the single chemotactic agent PDGF-BB (25 ng/ml).

[6] = tested on: human coronary artery endothelial cells (hCaEC); test: hCaEC migration in response to FBS after 24 h drug pretreatment; format: cell-based; conditions: 24 h pretreatment in growth media; migration to 5% FBS without growth factors; drug present
Procedure: as §1
To determine if growth factors contained in full growth media played a role in the inability of the mTOR antagonists (sirolimus or zotarolimus) or dexamethasone to inhibit migration, additional experiments were conducted to determine if drug pretreatment would affect migration induced by 5% FBS in the absence of growth factors. Migration in response to FBS following pretreatment of hCaEC with different concentrations of drugs was determined for the drugs sirolimus, dexamethasone, zotarolimus, and paclitaxel. To explore this effect in hCaEC, cells were synchronized, pretreated with drug in growth media for 24 hours, resuspended in basal media containing drug and migration in response to FBS determined. […] Dexamethasone promoted hCaEC migration.

[7] = tested on: human coronary artery endothelial cells (hCaEC); test: hCaEC migration, modified Boyden chamber, acute drug exposure, induced by 5% FBS; format: cell-based; conditions: for effect on hCaEC migration: no pretreatment, 22 hour migration
Procedure: As such, EC and SMC migration in response to hFGF, HEGF, VEGF, R^3-IGF-1 and FBS or FBS alone was determined using a modified Boyden chamber.
When necessary, each cell type was passed at ˜75% confluence.
as §1

pRb phosphorylation = test: pRb phosphorylation; format: cell-based

Row | Structure (SMILES) | effect on p70S6K T389 phosphorylation in hCaEC [1] | effect on full growth media induced hCaEC migration after drug pretreatment [2] | effect on FBS-induced hCaSMC migration after drug pretreatment [3] | effect on p70S6K T389 phosphorylation in hCaEC ([1]; listed as Paclitaxel) | effect on p70S6K T389 phosphorylation in hCaSMC [4] | effect on hCaSMC migration in response to PDGF-BB [5] | effect on migration of human coronary artery endothelial cells in vitro (summary statement) ([2]; in the presence of multiple growth factors and FBS) | effect on FBS-induced hCaEC migration after drug pretreatment [6] | anti-migratory potency in hCaEC compared to hCaSMC [7] | effect on hCaEC migration [7] | p70S6K T389 to actin ratio compared to growth controls (densitometry) ([1]; hCaEC, 300 nM drug) | effect on pRb phosphorylation (pRb phosphorylation)
1 | C[C@@H]1C[C@H]2[C@@H]3CCC4=CC(=O)C=C[C@]4(C)[C@@]3(F)[C@@H](O)C[C@]2(C)[C@@]1(O)C(=O)CO [dexamethasone] | does not inhibit | – | – | – | – | – | – | – | – | – | – | –
2 | CO[C@H]1C[C@@H]2CC[C@@H](C)[C@@](O)(O2)C(=O)C(=O)N2CCCC[C@H]2C(=O)O[C@H]([C@H](C)C[C@@H]2CC[C@@H](OCCO)[C@H](OC)C2)CC(=O)[C@H](C)/C=C(\C)[C@@H](O)[C@@H](OC)C(=O)[C@H](C)C[C@H](C)/C=C/C=C/C=C/1C [everolimus] | – | only paclitaxel inhibits | – | – | – | – | – | – | – | – | – | –
3 | CC(=O)O[C@H]1C(=O)[C@@]2(C)[C@H]([C@H](OC(=O)c3ccccc3)[C@]3(O)C[C@H](OC(=O)[C@H](O)[C@@H](NC(=O)c4ccccc4)c4ccccc4)C(C)=C1C3(C)C)[C@]1(OC(C)=O)CO[C@@H]1C[C@@H]2O [paclitaxel] | inhibit | inhibits | significantly blocks | reduces | reduces | inhibited | inhibits | significantly blocks | significantly greater | – | – | –
4 | CO[C@H]1C[C@@H]2CC[C@@H](C)[C@@](O)(O2)C(=O)C(=O)N2CCCC[C@H]2C(=O)O[C@H]([C@H](C)C[C@@H]2CC[C@@H](O)[C@H](OC)C2)CC(=O)[C@H](C)/C=C(\C)[C@@H](O)[C@@H](OC)C(=O)[C@H](C)C[C@H](C)/C=C/C=C/C=C/1C [sirolimus] | – | – | – | – | – | – | – | – | – | no effect | – | –
5 | CO[C@H]1C[C@@H]2CC[C@@H](C)[C@@](O)(O2)C(=O)C(=O)N2CCCC[C@H]2C(=O)O[C@H]([C@H](C)C[C@@H]2CC[C@H](n3cnnn3)[C@H](OC)C2)CC(=O)[C@H](C)/C=C(\C)[C@@H](O)[C@@H](OC)C(=O)[C@H](C)C[C@H](C)/C=C/C=C/C=C/1C [zotarolimus] | completely block; also recorded: inhibit | only paclitaxel inhibits | did not significantly block | – | completely inhibit | inhibited | – | did not significantly block | – | no effect | significant inhibition | reduces
